Where two headings read alike, the source gives them in different places.
Key:
[1] = system: MCF 12A (normal epithelial breast cell line); experiment: MTT assay on normal cells, MCF 12A; assay type: cell-based, human; conditions: normal epithelial breast cell MCF 12A
Description: (§1) The synthesized compounds were evaluated for in-vitro cytotoxic activity against various cell lines such as HeLa (cervical cancer), MCF-7 (breast cancer), HL-60 (Human promyelocytic leukemia), HepG2 (Hepatocellular carcinoma) and MCF 12A (normal epithelial cell) by the MTT assay method. […] The relationship between surviving fraction and drug concentration was plotted to obtain the survival curve of all the cancer cell lines HeLa, MCF-7, HL-60 and HepG2. The response parameter calculated was the IC50 values, which responds to the concentration required for 50% inhibition of cell viability. The in-vitro cytotoxic activity of the synthesized compounds is summarized Table 3.
The presence of non-halogen substituent along with electron donating substituent seriously jeopardise the anticancer potential. […] To determine the selectivity of these molecules between normal and cancerous cells, the designed compounds were also tested against MCF 12A, a normal epithelial breast cell.
(§2) The target compounds were subjected to in vitro cytotoxicity bioassay. In vitro cytotoxicity was determined using a standard MTT assay with protocol appropriate for the individual test system[29]–[31]. The four human cancer cell lines HeLa, MCF-7, HL-60, HepG2 and MCF-12A were cultured in the MEM medium supplemented with 10% FBS, 1% glutamine and […] gentamicin sulfate in a CO2 incubator in a humidified atmosphere of 5% CO2 and 95% air. The test compounds were prepared prior to the experiment by dissolving in 0.1% DMSO and diluted with medium. The cells were then exposed to different concentrations of drugs ([…]) in the volume of […]. Cells in the control wells received the same volume of medium containing 0.1% DMSO. After 24 h, the medium was removed and cell cultures were incubated with […] MTT reagent (1 mg/ml) for 5 h at 37 °C. The known number of cells ([…]) was incubated in a 5% CO2 incubator at 37 °C in the presence of different concentrations of test compounds. After 48 h of drug incubation, the MTT solution was added in each well and absorbance was recorded at 540 nm by an ELISA reader. The experiment was performed in triplicate. Cell survival was calculated as the percentage of MTT inhibition as % growth inhibition = 100 − (mean OD of individual test Group/Mean OD of each Control Group) × 100.

[2] = system: HL-60 (Human promyelocytic leukemia); experiment: MTT in vitro cytotoxicity assay, HL-60; assay type: cell-based
Description: as §1, §2

[3] = molecular target: T1, EGFR-TK (Homo sapiens, UniProt P00533); experiment: EGFR tyrosine kinase inhibitory activity (Kinase-Glo Plus luminescence); assay type: biochemical; conditions: for inhibition at 10 µM: read-out: Percent of Inhibition, EGFR tyrosine kinase
T1 construct: 0.2 mg/mL Poly (Glu, Tyr) substrate, 10 mM ATP and EGFR
Description: Kinase activity was determined using Kinase-Glo Plus luminescence kinase assay kit, by quantitating the amount of ATP remaining in the solution of kinase reaction. The luminescent signal is correlated with the residual amount present and it was inversely related with kinase activity. The tested compounds were diluted to 100 mM in 10% DMSO, then […] of the dilution was added to a 50 mL reaction. All of the enzymatic reactions were performed at 30 °C for 40 min, 50 mL of reaction mixture contains 10 mM MgCl2, 40 mM Tris, pH 7.4, 0.1 mg/mL BSA, 0.2 mg/mL Poly (Glu, Tyr) substrate, 10 mM ATP and EGFR. Incubate the plate for 5 min at r.t. then add 50 mL of Kinase-GloPlus Luminescence kinase assay to each reaction. ADP-Glo assay kit is the protein kinase assays used to determine IC50 values in which ADP generation was measured as it leads to an increase in luminescence signal. The reaction mixture was incubated in a 96-well plate at 30 °C for 30 min, after the incubation period add 25 mL of ADP-Glo reagent to terminate the assay. Shake the 96-well plate for 30 min at ambient temperature then incubate it, then add 50 mL of kinase detection reagent. Read the 96-well plate using the ADP-Glo Luminescence reader. All the assay components were added to the blank control except the substrate. By removing the blank control value you can obtain the corrected activity for each protein kinase target.

[4] = system: MCF-7 (breast cancer); experiment: MTT in vitro cytotoxicity assay, MCF-7; assay type: cell-based, human
Description: as §1, §2

[5] = system: HeLa (cervical cancer); experiment: MTT in vitro cytotoxicity assay, HeLa; assay type: cell-based, human
Description: as §1, §2

[6] = system: HepG2 (Hepatocellular carcinoma); experiment: MTT in vitro cytotoxicity assay, HepG2; assay type: cell-based, human; conditions: NA: Not active
Description: as §1, §2

T1 sequence (P00533 25-1210): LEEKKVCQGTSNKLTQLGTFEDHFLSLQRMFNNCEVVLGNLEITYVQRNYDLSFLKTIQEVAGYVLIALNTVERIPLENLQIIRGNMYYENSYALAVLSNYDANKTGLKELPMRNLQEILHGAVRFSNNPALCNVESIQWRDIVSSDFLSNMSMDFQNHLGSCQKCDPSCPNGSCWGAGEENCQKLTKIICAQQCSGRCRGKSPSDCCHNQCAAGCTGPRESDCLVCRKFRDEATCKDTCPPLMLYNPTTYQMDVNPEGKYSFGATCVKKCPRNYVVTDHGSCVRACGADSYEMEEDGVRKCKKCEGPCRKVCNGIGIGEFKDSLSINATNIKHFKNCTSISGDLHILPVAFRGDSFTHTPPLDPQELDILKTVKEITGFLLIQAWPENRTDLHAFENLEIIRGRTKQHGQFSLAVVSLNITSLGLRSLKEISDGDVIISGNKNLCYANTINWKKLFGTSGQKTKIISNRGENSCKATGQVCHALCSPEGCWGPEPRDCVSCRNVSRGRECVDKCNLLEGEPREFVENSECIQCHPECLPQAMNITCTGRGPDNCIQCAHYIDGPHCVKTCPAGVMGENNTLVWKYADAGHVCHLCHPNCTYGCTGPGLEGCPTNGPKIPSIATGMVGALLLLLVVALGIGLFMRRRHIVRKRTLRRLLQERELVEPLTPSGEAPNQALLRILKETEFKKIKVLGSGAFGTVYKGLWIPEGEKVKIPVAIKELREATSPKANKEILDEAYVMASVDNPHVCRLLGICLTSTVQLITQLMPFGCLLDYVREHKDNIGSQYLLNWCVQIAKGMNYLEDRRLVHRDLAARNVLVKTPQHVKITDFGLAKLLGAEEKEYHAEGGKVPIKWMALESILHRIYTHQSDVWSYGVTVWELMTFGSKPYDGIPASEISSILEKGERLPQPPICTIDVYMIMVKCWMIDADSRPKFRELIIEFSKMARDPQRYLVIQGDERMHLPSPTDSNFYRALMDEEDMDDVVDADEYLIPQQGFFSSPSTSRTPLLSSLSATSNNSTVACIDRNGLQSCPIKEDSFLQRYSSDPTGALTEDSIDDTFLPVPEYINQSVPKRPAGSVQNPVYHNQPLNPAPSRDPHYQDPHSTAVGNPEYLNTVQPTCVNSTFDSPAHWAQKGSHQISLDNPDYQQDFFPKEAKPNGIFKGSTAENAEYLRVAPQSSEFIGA

inhibition at 10 µM ([3]; at 10 µM)	melting point	%i ([3]; EGFR-TK percent inhibition as repeated in docking Table 5)	Percent of Inhibition, EGFR tyrosine kinase ([3]; at 10 µM)	Compound	IC50 MCF 12A [1]	IC50 ([2]; Homo sapiens)	IC50 ([4]; Homo sapiens, MCF7)	IC50 ([5]; Homo sapiens)	IC50 HepG2 [6]	IC50 ([6]; Homo sapiens)	IC50 [2]	IC50 [4]	IC50 [5]	IC50 [6]
52.4%	225 to 227 °C			CCOC(=O)C1=C(C)N(c2nc(Nc3ccccc3)nc(Nc3ccccc3)n2)C(=S)NC1c1ccccc1 (centres unmarked) [7a, Ethyl 1-(4,6-bis(phenylamino)-1,3,5-triazin-2-yl)-6-methyl-4-phenyl-2-thioxo-1,2,3,4-tetrahydropyrimidine-5-carboxylate]	non-toxic	83.7 ± 0.27 µM	87.4 ± 0.76 µM	96.6 ± 0.45 µM	inactive					
74.8%	161 to 163 °C			CCOC(=O)C1=C(C)N(c2nc(Nc3cccc(Cl)c3)nc(Nc3cccc(Cl)c3)n2)C(=S)NC1c1ccc(O)cc1 (centres unmarked) [7d, Ethyl 1-(4,6-bis((3-chlorophenyl)amino)-1,3,5-triazin-2-yl)-4-(4-hydroxyphenyl)-6-methyl-2-thioxo-1,2,3,4-tetrahydropyrimidine-5-carboxylate]	non-toxic	43.2 ± 0.38 µM	61.3 ± 0.78 µM	51.3 ± 0.32 µM		41.4 ± 0.38 µM				
~69%		70.1%	70.1%	CCOC(=O)C1=C(C)N(c2nc(Nc3cccc(Br)c3)nc(Nc3cccc(Br)c3)n2)C(=S)NC1c1ccc([N+](=O)[O-])cc1 (centres unmarked) [7k, Ethyl 1-(4,6-bis((3-bromophenyl)amino)-1,3,5-triazin-2-yl)-6-methyl-4-(4-nitrophenyl)-2-thioxo-1,2,3,4-tetrahydropyrimidine-5-carboxylate]	non-toxic	51.3 ± 0.82 µM	65.6 ± 0.43 µM	66.4 ± 0.67 µM		59.7 ± 0.69 µM				
54.2%	205 to 207 °C			CCOC(=O)C1=C(C)N(c2nc(Nc3ccc(C)cc3)nc(Nc3ccc(C)cc3)n2)C(=S)NC1c1ccccc1C (centres unmarked) [7n, Ethyl 1-(4,6-bis(p-tolylamino)-1,3,5-triazin-2-yl)-6-methyl-2-thioxo-4-(o-tolyl)-1,2,3,4-tetrahydropyrimidine-5-carboxylate]	non-toxic	104.5 ± 0.39 µM	93.2 ± 0.58 µM	92.6 ± 0.23 µM						
45.6%	131 to 133 °C			CCOC(=O)C1=C(C)N(c2nc(Nc3ccc(C)cc3)nc(Nc3ccc(C)cc3)n2)C(=S)NC1c1ccc(O)cc1 (centres unmarked) [7o, Ethyl 1-(4,6-bis(p-tolylamino)-1,3,5-triazin-2-yl)-4-(4-hydroxyphenyl)-6-methyl-2-thioxo-1,2,3,4-tetrahydropyrimidine-5-carboxylate]	non-toxic	98.3 ± 0.27 µM	89.4 ± 0.49 µM	94.3 ± 0.78 µM						
				N.N.[Cl][Pt][Cl] [Cisplatin, reference compound]	non-toxic						12.3 ± 0.76 µM	24.4 ± 0.92 µM	32.5 ± 0.62 µM	25.9 ± 0.82 µM

Compound	inhibition at 10 µM ([3]; at 10 µM)	melting point	%i ([3]; EGFR-TK percent inhibition as repeated in docking Table 5)	Percent of Inhibition, EGFR tyrosine kinase ([3]; at 10 µM)	IC50 MCF 12A [1]	IC50 ([2]; Homo sapiens)	IC50 ([4]; Homo sapiens, MCF7)	IC50 ([5]; Homo sapiens)	IC50 HepG2 [6]	IC50 ([6]; Homo sapiens)	IC50 [2]	IC50 [4]	IC50 [5]	IC50 [6]
CCOC(=O)C1=C(C)N(c2nc(Nc3ccc([N+](=O)[O-])cc3)nc(Nc3ccc([N+](=O)[O-])cc3)n2)C(=S)NC1c1ccc(C)cc1 (centres unmarked) [7b, Ethyl 1-(4,6-bis((4-nitrophenyl)amino)-1,3,5-triazin-2-yl)-6-methyl-2-thioxo-4-(p-tolyl)-1,2,3,4-tetrahydropyrimidine-5-carboxylate]	56.7%	183 to 185 °C			non-toxic	77.3 ± 0.41 µM	76.5 ± 0.54 µM	81.8 ± 0.34 µM		79.3 ± 0.75 µM				
CCOC(=O)C1=C(C)N(c2nc(Nc3ccccc3[N+](=O)[O-])nc(Nc3ccccc3[N+](=O)[O-])n2)C(=S)NC1c1ccc(C)cc1 (centres unmarked) [7c, Ethyl 1-(4,6-bis((2-nitrophenyl)amino)-1,3,5-triazin-2-yl)-6-methyl-2-thioxo-4-(p-tolyl)-1,2,3,4-tetrahydropyrimidine-5-carboxylate]	53.6%	232 to 234 °C			non-toxic	70.5 ± 0.49 µM	72.2 ± 0.61 µM	83.5 ± 0.22 µM		86.4 ± 0.67 µM				

From article PMC5517562, “Design and discovery of novel monastrol-1,3,5-triazines as potent anti-breast cancer agent via attenuating Epidermal Growth Factor Receptor tyrosine kinase” (Scientific Reports, 2017)
